Reference: ChEMBL document CHEMBL4011590, “Structure-activity relationship studies on 3,5-dinitrophenyl tetrazoles as antitubercular agents” (Eur J Med Chem, 2017)
Values after ≈ are worked out from the molar mass of the structure shown.

Assays:
[1] = test system: Nakaseomyces glabratus; assay: Antifungal activity against Candida glabrata 20/I after 48 hrs by broth microdilution method; assay type: functional
[2] = test system: Trichosporon asahii; assay: Antifungal activity against Trichosporon asahii 1188 after 24 hrs by broth microdilution method; assay type: functional; details: Trichosporon asahii, 1188, 24 h
[3] = test system: Mycobacterium kansasii; assay: Antimycobacterial activity against Mycobacterium kansasii isolate 6509/96 after 7 days by micromethod; assay type: functional; details: isolate 6509/96, 168 h
[4] = test system: Candida albicans; assay: Antifungal activity against Candida albicans ATCC 44859 after 24 hrs by broth microdilution method; assay type: functional; details: ATCC 44859, 24 h
[5] = test system: Staphylococcus epidermidis; assay: Antibacterial activity against Staphylococcus epidermidis HK6966/08 after 48 hrs by broth microdilution method; assay type: functional; details: HK6966/08, 48 h
[6] = test system: Staphylococcus aureus; assay: Antibacterial activity against Staphylococcus aureus ATCC 6538 after 24 hrs by broth microdilution method; assay type: functional; details: ATCC 6538, 24 h
[7] = test system: Pichia kudriavzevii; assay: Antifungal activity against Candida krusei E28 after 48 hrs by broth microdilution method; assay type: functional; details: E28, 48 h
[8] = test system: Escherichia coli; assay: Antibacterial activity against Escherichia coli ATCC 8739 after 48 hrs by broth microdilution method; assay type: functional; details: ATCC 8739, 48 h
[9] = test system: Candida tropicalis; assay: Antifungal activity against Candida tropicalis 156 after 24 hrs by broth microdilution method; assay type: functional; details: Candida tropicalis, 156, 24 h
[10] = test system: Trichosporon asahii; assay: Antifungal activity against Trichosporon asahii 1188 after 48 hrs by broth microdilution method; assay type: functional; details: Trichosporon asahii, 1188, 48 h
[11] = test system: Mycobacterium kansasii; assay: Antimycobacterial activity against Mycobacterium kansasii isolate 6509/96 after 21 days by micromethod; assay type: functional; details: isolate 6509/96, 504 h
[12] = test system: Mycobacterium avium; assay: Antimycobacterial activity against Mycobacterium avium CNCTC My 330/80 after 14 days by micromethod; assay type: functional; details: CNCTC My 330/80, 336 h
[13] = test system: Enterococcus sp.; assay: Antibacterial activity against Enterococcus sp. HK14365/08 after 48 hrs by broth microdilution method; assay type: functional; details: HK14365/08, 48 h
[14] = test system: Pseudomonas aeruginosa; assay: Antibacterial activity against Pseudomonas aeruginosa ATCC 9027 after 24 hrs by broth microdilution method; assay type: functional; details: ATCC 9027, 24 h
[15] = test system: Staphylococcus aureus; assay: Antibacterial activity against Staphylococcus aureus ATCC 6538 after 48 hrs by broth microdilution method; assay type: functional; details: ATCC 6538, 48 h
[16] = test system: Klebsiella pneumoniae; assay: Antibacterial activity against extended spectrum beta-lactamase producing Klebsiella pneumoniae HK14368/08 after 24 hrs by broth microdilution method; assay type: functional; details: HK14368/08, 24 h
[17] = test system: Pseudomonas aeruginosa; assay: Antibacterial activity against Pseudomonas aeruginosa ATCC 9027 after 48 hrs by broth microdilution method; assay type: functional; details: ATCC 9027, 48 h
[18] = test system: Mycobacterium kansasii; assay: Antimycobacterial activity against Mycobacterium kansasii CNCTC My 235/80 after 21 days by micromethod; assay type: functional; details: CNCTC My 235/80, 504 h
[19] = test system: Candida albicans; assay: Antifungal activity against Candida albicans ATCC 44859 after 48 hrs by broth microdilution method; assay type: functional; details: ATCC 44859, 48 h
[20] = test system: Mycobacterium kansasii; assay: Antimycobacterial activity against Mycobacterium kansasii isolate 6509/96 after 14 days by micromethod; assay type: functional; details: isolate 6509/96, 336 h
[21] = test system: Escherichia coli; assay: Antibacterial activity against Escherichia coli ATCC 8739 after 24 hrs by broth microdilution method; assay type: functional; details: ATCC 8739, 24 h
[22] = test system: Trichophyton mentagrophytes; assay: Antifungal activity against Trichophyton mentagrophytes 445 after 120 hrs by broth microdilution method; assay type: functional; details: Trichophyton mentagrophytes, 445, 120 h
[23] = test system: Aspergillus fumigatus; assay: Antifungal activity against Aspergillus fumigatus 231 after 48 hrs by broth microdilution method; assay type: functional; details: Aspergillus fumigatus, 231, 48 h
[24] = test system: Enterococcus sp.; assay: Antibacterial activity against Enterococcus sp. HK14365/08 after 24 hrs by broth microdilution method; assay type: functional; details: HK14365/08, 24 h
[25] = test system: Mycobacterium tuberculosis; assay: Antimycobacterial activity against Mycobacterium tuberculosis H37Rv CNCTC My 331/88 after 14 days by micromethod; assay type: functional; details: H37Rv CNCTC My 331/88, 336 h
[26] = test system: Staphylococcus epidermidis; assay: Antibacterial activity against Staphylococcus epidermidis HK6966/08 after 24 hrs by broth microdilution method; assay type: functional; details: HK6966/08, 24 h
[27] = test system: Staphylococcus aureus; assay: Antibacterial activity against methicillin-resistant Staphylococcus aureus HK5996/08 after 24 hrs by broth microdilution method; assay type: functional; details: HK5996/08, 24 h
[28] = test system: Lichtheimia corymbifera; assay: Antifungal activity against Absidia corymbifera 272 after 24 hrs by broth microdilution method; assay type: functional; details: Lichtheimia corymbifera, 272, 24 h
[29] = test system: Mycobacterium avium; assay: Antimycobacterial activity against Mycobacterium avium CNCTC My 330/80 after 21 days by micromethod; assay type: functional; details: CNCTC My 330/80, 504 h
[30] = test system: Nakaseomyces glabratus; assay: Antifungal activity against Candida glabrata 20/I after 24 hrs by broth microdilution method; assay type: functional
[31] = test system: Mycobacterium kansasii; assay: Antimycobacterial activity against Mycobacterium kansasii CNCTC My 235/80 after 14 days by micromethod; assay type: functional; details: CNCTC My 235/80, 336 h
[32] = test system: Trichophyton mentagrophytes; assay: Antifungal activity against Trichophyton mentagrophytes 445 after 72 hrs by broth microdilution method; assay type: functional; details: Trichophyton mentagrophytes, 445, 72 h
[33] = test system: Staphylococcus aureus; assay: Antibacterial activity against methicillin-resistant Staphylococcus aureus HK5996/08 after 48 hrs by broth microdilution method; assay type: functional; details: HK5996/08, 48 h
[34] = test system: Klebsiella pneumoniae; assay: Antibacterial activity against Klebsiella pneumoniae HK11750/08 after 48 hrs by broth microdilution method; assay type: functional; details: HK11750/08, 48 h
[35] = test system: Candida tropicalis; assay: Antifungal activity against Candida tropicalis 156 after 48 hrs by broth microdilution method; assay type: functional; details: Candida tropicalis, 156, 48 h
[36] = test system: Mycobacterium kansasii; assay: Antimycobacterial activity against Mycobacterium kansasii CNCTC My 235/80 after 7 days by micromethod; assay type: functional; details: CNCTC My 235/80, 168 h
[37] = test system: Pichia kudriavzevii; assay: Antifungal activity against Candida krusei E28 after 24 hrs by broth microdilution method; assay type: functional; details: E28, 24 h
[38] = test system: Klebsiella pneumoniae; assay: Antibacterial activity against extended spectrum beta-lactamase producing Klebsiella pneumoniae HK14368/08 after 48 hrs by broth microdilution method; assay type: functional; details: HK14368/08, 48 h
[39] = test system: Aspergillus fumigatus; assay: Antifungal activity against Aspergillus fumigatus 231 after 24 hrs by broth microdilution method; assay type: functional; details: Aspergillus fumigatus, 231, 24 h
[40] = test system: Klebsiella pneumoniae; assay: Antibacterial activity against Klebsiella pneumoniae HK11750/08 after 24 hrs by broth microdilution method; assay type: functional; details: HK11750/08, 24 h
[41] = test system: Mycobacterium tuberculosis; assay: Antimycobacterial activity against Mycobacterium tuberculosis H37Rv CNCTC My 331/88 after 21 days by micromethod; assay type: functional; details: H37Rv CNCTC My 331/88, 504 h
[42] = test system: CHO-K1; assay: Cytotoxicity against CHOK1 cells after 24 hrs by MTT assay; assay type: cell-based; details: Cricetulus griseus, CHO-K1, 24 h
[43] = test system: Lichtheimia corymbifera; assay: Antifungal activity against Absidia corymbifera 272 after 48 hrs by broth microdilution method; assay type: functional; details: Lichtheimia corymbifera, 272, 48 h

## O=[N+]([O-])c1cc(-c2nnn(CSc3nnnn3-c3ccc(Cl)c(Cl)c3)n2)cc([N+](=O)[O-])c1
[1]
  MIC: > 125 µM
[2]
  MIC: > 125 µM
[3]
  MIC99: 0.03 µM (≈ 0.0149 µg/mL)
[4]
  MIC: > 125 µM
[5]
  MIC: > 125 µM
[6]
  MIC: > 125 µM
[7]
  MIC: > 125 µM
[8]
  MIC: > 125 µM
[9]
  MIC: > 125 µM
[10]
  MIC: > 125 µM
[11]
  MIC99: 0.06 µM (≈ 0.0297 µg/mL)
[12]
  MIC99: 4 µM (≈ 1.98 µg/mL)
[13]
  MIC: > 125 µM
[14]
  MIC: > 125 µM
[15]
  MIC: > 125 µM
[16]
  MIC: > 125 µM
[17]
  MIC: > 125 µM
[18]
  MIC99: 125 µM (≈ 61.9 µg/mL)
[19]
  MIC: > 125 µM
[20]
  MIC99: 0.06 µM (≈ 0.0297 µg/mL)
[21]
  MIC: > 125 µM
[22]
  MIC: > 125 µM
[23]
  MIC: > 125 µM
[24]
  MIC: > 125 µM
[25]
  MIC99: 0.03 µM (≈ 0.0149 µg/mL)
[26]
  MIC: > 125 µM
[27]
  MIC: > 125 µM
[28]
  MIC: > 125 µM
[29]
  MIC99: 8 µM (≈ 3.96 µg/mL)
[30]
  MIC: > 125 µM
[31]
  MIC99: 0.125 µM (≈ 0.0619 µg/mL)
[32]
  MIC: > 125 µM
[33]
  MIC: > 125 µM
[34]
  MIC: > 125 µM
[35]
  MIC: > 125 µM
[36]
  MIC99: 0.06 µM (≈ 0.0297 µg/mL)
[37]
  MIC: > 125 µM
[38]
  MIC: > 125 µM
[39]
  MIC: > 125 µM
[40]
  MIC: > 125 µM
[41]
  MIC99: 0.03 µM (≈ 0.0149 µg/mL)
[42]
  IC50: 8.7 µM
[43]
  MIC: > 125 µM

## Cc1ccc(Cn2nnnc2-c2cc([N+](=O)[O-])cc([N+](=O)[O-])c2)cc1
[1]
  MIC: > 500 µM
[2]
  MIC: > 500 µM
[3]
  MIC99: 2 µM (≈ 0.681 µg/mL)
[4]
  MIC: > 500 µM
[5]
  MIC: 250 µM (≈ 85.1 µg/mL)
[6]
  MIC: 125 µM (≈ 42.5 µg/mL)
[7]
  MIC: > 500 µM
[8]
  MIC: 500 µM (≈ 170 µg/mL)
[9]
  MIC: > 500 µM
[10]
  MIC: > 500 µM
[11]
  MIC99: 4 µM (≈ 1.36 µg/mL)
[12]
  MIC99: 8 µM (≈ 2.72 µg/mL)
[13]
  MIC: 250 µM (≈ 85.1 µg/mL)
[14]
  MIC: > 500 µM
[15]
  MIC: 125 µM (≈ 42.5 µg/mL)
[16]
  MIC: 500 µM (≈ 170 µg/mL)
[17]
  MIC: > 500 µM
[18]
  MIC99: 4 µM (≈ 1.36 µg/mL)
[19]
  MIC: > 500 µM
[20]
  MIC99: 4 µM (≈ 1.36 µg/mL)
[21]
  MIC: 500 µM (≈ 170 µg/mL)
[22]
  MIC: > 500 µM
[23]
  MIC: > 500 µM
[24]
  MIC: 250 µM (≈ 85.1 µg/mL)
[25]
  MIC99: 1 µM (≈ 0.34 µg/mL)
[26]
  MIC: 250 µM (≈ 85.1 µg/mL)
[27]
  MIC: 125 µM (≈ 42.5 µg/mL)
[28]
  MIC: > 500 µM
[29]
  MIC99: 16 µM (≈ 5.44 µg/mL)
[30]
  MIC: > 500 µM
[31]
  MIC99: 2 µM (≈ 0.681 µg/mL)
[32]
  MIC: > 500 µM
[33]
  MIC: 125 µM (≈ 42.5 µg/mL)
[34]
  MIC: 500 µM (≈ 170 µg/mL)
[35]
  MIC: > 500 µM
[36]
  MIC99: 1 µM (≈ 0.34 µg/mL)
[37]
  MIC: > 500 µM
[38]
  MIC: 500 µM (≈ 170 µg/mL)
[39]
  MIC: > 500 µM
[40]
  MIC: 500 µM (≈ 170 µg/mL)
[41]
  MIC99: 2 µM (≈ 0.681 µg/mL)
[42]
  IC50: 28 µM
[43]
  MIC: > 500 µM
